We go through 1 molecule from ChEMBL document CHEMBL1201862, “PubChem BioAssay data set” (2004).

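Exposure lasted 48 hours, with cells grown in 96-well plates and compounds tested at five concentrations. Here, GI50 denotes the concentration required for 50% inhibition of growth.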 Calls of active or inactive are those of the source. Rule as the data show it: active = GI50 up to about 1.1 µM and inactive = higher.

Test systems include HCT-116; HCT-15; HL-60; HOP-92; K562; KM-20L2; KM12; MOLT-4; NCI/ADR-RES; OVCAR-3; OVCAR-4; OVCAR-5; SK-MEL-2; SK-MEL-5; SN12C; SW-620; U-251; UACC-257; UO-31; XF498.
What all share (assay): inhibition of tumour cell growth, NCI panel, 48 h

As for `C/C=C1/C(=O)O[C@]23C=C[C@@H]4C(C(=O)OC)=CO[C@H](O[C@@H]12)[C@@H]43` [PLUMERICIN], the GI50 with HCT-116 was 0.451 µM (active); with HCT-15, 0.671 µM; in the assay with HL-60, 0.24 µM (active); in the assay on HOP-92, 1.61 µM (inactive); in the assay on K562, 0.652 µM (active); with KM-20L2, 2.17 µM (inactive). In addition, the GI50 in the assay with KM12 is 2.28 µM (inactive); in the assay on MOLT-4 it was 0.459 µM (active); in the assay on NCI/ADR-RES it was 0.676 µM (active); with OVCAR-3, 0.861 µM (active); in the assay with OVCAR-4 it was 1.52 µM (inactive); in the assay with OVCAR-5, 3.66 µM (inactive). For the same molecule, the GI50 with SK-MEL-2 is 1.44 µM (inactive); in the assay on SK-MEL-5 it was 2.12 µM (inactive); with SN12C it was 1.98 µM (inactive); in the assay on SW-620, 0.432 µM (active); in the assay on U-251 it was 2.7 µM (inactive); with UACC-257 it was 0.592 µM (active). Also, the GI50 with UO-31 is 3.12 µM (inactive); in the assay with XF498, 1.38 µM (inactive).
